From publication PMC9127750, “Structure-based design of CDC42 effector interaction inhibitors for the treatment of cancer” (Cell reports, 2022)
Several values for one entry are separate records, joined by “and”; a condition that tells them apart may be missing. Equal entries are not always repeated.

Test system: WM3248 melanoma cells, 486 antibodies
Experiment: Reverse phase protein arrays (RPPA)
Assay type: cell-based, Human
Settings: normalized to 0
Source text: Pellets were snap frozen in liquid nitrogen and shipped to MD Anderson Cancer Center core RPPA facility for RPPA analysis (Table S5). Three biological replicates for each sample were generated.
Nomenclatures on the RPPA heatmaps: name_of_antibody.species_of_antibody.status_of_antibody. V - antibody validated; C - validation of antibody in progress; Q - antibody nonspecific; E – under evaluation; antibodies raised in M - mouse, G - goat, R - rabbit, or T - rat.

Compound: CN(C)c1cccc(Nc2cc(-c3ccccc3)nc(C3CCNCC3)n2)c1 [ARN22089, N1,N1-dimethyl-N3-(6-phenyl-2-(piperidin-4-yl)pyrimidin-4-yl)benzene-1,3-diamine]
- GSK.3B.R.C Norm_10 (10, replicates 1-3): 0.867 and 0.924 and 0.907
- GSK.3a.b.M.V Norm_10 (10, replicates 1-3): 0.998 and 1.049
- GSK.3a.b_pS21_S9.R.V Norm_10 (10, replicates 1-3): 1.903 and 0.801
- Gab2.R.V Norm_10 (10, replicates 1-3): 1.165 and 1.098 and 0.933
- Gli1.R.C Norm_10 (10, replicates 1-3): 0.913 and 0.965 and 1.136
- Gli3.R.C Norm_10 (10, replicates 1-3): 1.151 and 1.082 and 1.169
- Glucocorticoid.Receptor.R.V Norm_10 (10, replicates 1-3): 1.159 and 1.201 and 0.996
- Glutamate.D1.2.R.V Norm_10 (10, replicates 1-3): 0.997 and 1.319 and 1.150
- Glutaminase.R.C Norm_10 (10, replicates 1-3): 0.936 and 1.126 and 1.162
- Granzyme.B.R.V Norm_10 (10, replicates 1-3): 1.207 and 0.777 and 0.921
- Grp75.R.C Norm_10 (10, replicates 1-3): 1.100 and 1.356 and 0.930
- Gys.R.V Norm_10 (10, replicates 1-3): 0.972 and 0.858 and 0.963
- Gys_pS641.R.V Norm_10 (10, replicates 1-3): 0.959 and 0.885
- H2AX_pS139.R.C Norm_10 (10, replicates 1-3): 0.952 and 0.894
- H2AX_pS140.M.C Norm_10 (10, replicates 1-3): 0.944 and 1.316 and 1.153
- HER2.M.V Norm_10 (10, replicates 1-3): 1.003 and 1.056
- HER2_pY1248.R.V Norm_10 (10, replicates 1-3): 0.907 and 0.828 and 1.009
- HER3.R.V Norm_10 (10, replicates 1-3): 0.945 and 1.026 and 0.936
- HER3_pY1289.R.C Norm_10 (10, replicates 1-3): 1.083 and 1.014
- HES1.R.V Norm_10 (10, replicates 1-3): 1.156 and 0.918 and 0.849
- Heregulin.R.V Norm_10 (10, replicates 1-3): 0.988 and 0.972 and 0.854
- eEF2.R.C Norm_10 (10, replicates 1-3): 1.541 and 1.276 and 1.659
- eEF2K.R.V Norm_10 (10, replicates 1-3): 1.101 and 1.387 and 1.115
- eIF4E.R.V Norm_10 (10, replicates 1-3): 1.636 and 0.500 and 0.846
- eIF4E_pS209.R.V Norm_10 (10, replicates 1-3): 0.984 and 0.803
- eIF4G.R.C Norm_10 (10, replicates 1-3): 0.963
- DRP1.R.V Norm_20 Average (20, average): 0.964
- DUSP4.R.V Norm_20 Average (20, average): 0.723
- DUSP6.R.C Norm_20 Average (20, average): 1.555
- Dvl3.R.V Norm_20 Average (20, average): 1.031
- E2F1.R.V Norm_20 Average (20, average): 1.247
- E.Cadherin.R.V Norm_20 Average (20, average): 0.854
- EGFR.R.V Norm_20 Average (20, average): 1.132
- EGFR_pY1068.R.C Norm_20 Average (20, average): 0.914
- EGFR_pY1173.R.V Norm_20 Average (20, average): 1.048
- EMA.M.C Norm_20 Average (20, average): 0.783
- ENY2.M.C Norm_20 Average (20, average): 0.952
- ER.a.R.V Norm_20 Average (20, average): 0.959
- ER.a_pS118.R.V Norm_20 Average (20, average): 1.311
- ERCC5.R.C Norm_20 Average (20, average): 1.110
- ERRalpha.R.V Norm_20 Average (20, average): 0.963
- EVI1.R.V Norm_20 Average (20, average): 0.976
- Elk1_pS383.R.C Norm_20 Average (20, average): 1.105
- Enolase.2.R.V Norm_20 Average (20, average): 0.948
- EphA2.R.V Norm_20 Average (20, average): 0.748
- EphA2_pS897.R.C Norm_20 Average (20, average): 0.630
- EphA2_pY588.R.C Norm_20 Average (20, average): 0.974
- Erk5.R.V Norm_20 Average (20, average): 0.917
- Ets.1.R.V Norm_20 Average (20, average): 1.379
- FABP5.R.C Norm_20 Average (20, average): 1.251
- FAK.R.C Norm_20 Average (20, average): 0.978
- FAK_pY397.R.V Norm_20 Average (20, average): 0.925
- FANCD2.R.V Norm_20 Average (20, average): 0.851
- FASN.R.V Norm_20 Average (20, average): 0.957
- FGF.basic.R.C Norm_20 Average (20, average): 1.005
- FN14.R.C Norm_20 Average (20, average): 1.106
- FOXM1.R.V Norm_20 Average (20, average): 0.936
- FRS2.alpha_pY196.R.V Norm_20 Average (20, average): 1.059
- FTO.R.V Norm_20 Average (20, average): 1.058
- Fibronectin.R.V Norm_20 Average (20, average): 1.193
- FoxO3a_pS318_S321.R.C Norm_20 Average (20, average): 1.005
- G6PD.R.V Norm_20 Average (20, average): 0.954
- GATA3.M.V Norm_20 Average (20, average): 1.318
- GATA6.R.V Norm_20 Average (20, average): 0.955
- GCLC.R.C Norm_20 Average (20, average): 1.023
- GCLM.R.V Norm_20 Average (20, average): 0.992
- GCN5L2.R.V Norm_20 Average (20, average): 0.995
- GGPS1.M.V Norm_20 Average (20, average): 1.022
- GRB2.R.V Norm_20 Average (20, average): 0.934
- GRB7.R.V Norm_20 Average (20, average): 0.995
- GSK.3B.R.C Norm_20 Average (20, average): 0.882
- GSK.3a.b.M.V Norm_20 Average (20, average): 0.925
- GSK.3a.b_pS21_S9.R.V Norm_20 Average (20, average): 1.221
- Gab2.R.V Norm_20 Average (20, average): 1.169
- Gli3.R.C Norm_20 Average (20, average): 1.301
- Glucocorticoid.Receptor.R.V Norm_20 Average (20, average): 1.170
- Glutamate.D1.2.R.V Norm_20 Average (20, average): 1.186
- Grp75.R.C Norm_20 Average (20, average): 1.195
- Gys_pS641.R.V Norm_20 Average (20, average): 0.856
- H2AX_pS139.R.C Norm_20 Average (20, average): 1.433
- H2AX_pS140.M.C Norm_20 Average (20, average): 1.232
